Laboratory results from US20220288048A1, “PIMAVANSERIN FOR TREATING SCHIZOPHRENIA OR FOR TREATING PSYCHOSIS SECONDARY TO NEURODEGENERATIVE DISORDERS OR DEPRESSIVE DISORDER” (ACADIA Pharmaceuticals Inc., priority 2019, published 2022).
“Also recorded” adds a separate entry of the source.

Key:
Type in all cases: in vivo
[1] = tested on: scPCP+ARS(2h) treated male C57BL/6J mice; test: 10-min social interaction test in scPCP-treated mice given 2 h acute restraint stress (treatment-resistant model); details: for Able to restore sniffing or decrease avoidance (SI deficit), drug alone: risperidone 0.2, olanzapine 1, aripiprazole 1 or pimavanserin 3 mg/kg ip alone, 45 min prior to test
Description: (§1) Briefly, mice were habituated to the test arena (i.e., the NOR box) for 30 minutes prior to the test day. Pairs of mice, unfamiliar to each other, received either the same treatment (e.g., vehicle and vehicle; N=10 pairs) or different treatments (e.g., vehicle; N=10 and phencyclidine (PCP) 10 mg/kg; N=10). After washout, they were placed in the test arena together for 10 minutes. A heavy object made of Plexiglas or metal was placed in the center of the test arena to quantify the time and nature of interaction of the test animals with an unfamiliar object or an unfamiliar animal. After the 10 min test phase, the object and the arena were cleaned with 70% ethanol to remove any olfactory trails. Behavior was recorded on video for subsequent blind scoring.
(§2) The following four behaviors were scored for each animal: • a) Sniffing: A normal mouse engages in sniffing the con-specific mouse's body, including the anogenital area • b) Following: A normal mouse pursues a con-specific mouse around the arena • c) Avoiding: A normal mouse avoids the con-specific mouse and move away from a pursuing mouse if approached • d) Object Exploration: A normal mouse explores the object that is placed in the center of the test arena.
Acute restraint stress (ARS) protocol: Mice were assigned to one of two groups: either the control group (non-stress) or the stress group. Generally, mice of the stress group were restrained in well-ventilated 50 mL tubes. After the restraint period of 1 or 2 hours, the mice were transferred into a clean animal housing cage for 1-hour interval and thereafter went through the first social interaction test (different mice are used to test different groups).
Treatment resistant animal model: To establish this model, Acute restraint stress (ARS) was added to scPCP treatment. Two groups (vehicle+ARS; scPCP+ARS) and their controls (vehicle+saline; scPCP+saline) were used. ARS was applied for 1 or 2 hours and tested on SI 1 hour post-ARS.
(§3) The behavioral assay, ARS protocol, and scPCP-treatment as described in Example 2 were used. To test the effect of atypical APD and pimavanserin, alone or as con-administration, in scPCP-treated mice (N=10 pairs of mice per group) given 2 h ARS, risperidone (“Risp”) was administered as 0.2 mg/kg or 0.4 mg/kg ip; olanzapine (“Olan”) as 1.0 mg/kg ip; aripiprazole (“Aripi”) as 1.0 mg/kg ip; and pimavanserin (“Pim”) as 3 mg/kg ip to scPCP+ARS(2h) treated male C57BL/6J mice 45 minutes prior to the commencement of the social interaction task in the 10 min social interaction test. Plasma levels of risperidone were measured using a Triple Quad 6500+ mass spectrometer.

[2] = Plasma levels of risperidone in scPCP and ARS-treated mice (mass spectrometer)
Description: as §3

[3] = tested on: scPCP-treated C57BL/6J mice; test: 10-min social interaction test in scPCP-treated mice; details: 45 min prior to test
Description: Negative symptoms model: The behavioral assay utilized to assess negative symptoms was social interaction (SI) task.
as §1, §2
scPCP treatment involved intraperitoneal injection (ip) of 10 mg/kg PCP to male C57BL/6J mice, twice daily (bid) for 7 days, followed by 7 days washout. To test the effect of atypical APD or pimavanserin in scPCP-treated mice (N=10 pairs of mice per group), risperidone was administered as 0.05 mg/kg ip or 0.2 mg/kg ip; and pimavanserin was administered as 3 mg/kg ip or 6 mg/kg ip to scPCP-treated mice 45 minutes prior to the commencement of the social interaction task in the 10 min social interaction test.

Compound	Able to restore sniffing or decrease avoidance (SI deficit), drug alone [1]	Effect on SI deficit, doubled dose ([1]; risperidone 0.4 mg/kg ip)	Plasma levels of risperidone ([2]; 0.2 mg/kg risperidone group)	Plasma levels of risperidone ([2]; 0.2 mg/kg risperidone plus 3 mg/kg pimavanserin group)	Plasma levels of risperidone ([2]; 0.4 mg/kg risperidone group)	SI deficit produced by scPCP: time exploring the conspecific mouse ([3]; risperidone 0.05 mg/kg ip)	SI deficit produced by scPCP: time exploring the conspecific mouse ([3]; risperidone 0.2 mg/kg ip)
O=C1CCc2ccc(OCCCCN3CCN(c4cccc(Cl)c4Cl)CC3)cc2N1 [aripiprazole]	Neither	–	–	–	–	–	–
Cc1nc2n(c(=O)c1CCN1CCC(c3noc4cc(F)ccc34)CC1)CCCC2 [risperidone]	Neither; also recorded: ineffective	ineffective	5.4±0.1	5.3±0.6	8.0±3.3	sub-effective	spent more time exploring the conspecific mouse
